Assay results reported in the supplement of paper PMC10307832.

Key:
Test in all cases: relative viability (nuclei count vs DMSO), 5 days (fraction); higher = more cells survive
[1] = compound: C1=CC=C(C(=C1)C2=CC=C(C=C2)C3=CSC4=C3C(=C(C(=O)N4)C#N)O)O + CC(=O)Nc1cccc(-n2c(=O)n(C3CC3)c(=O)c3c(Nc4ccc(I)cc4F)n(C)c(=O)c(C)c32)c1 [Trametinib] (partner 0.02 µM)
How it was run: (§1)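 Relative viability equals treated-well nuclei counts divided by vehicle-well nuclei counts. Counts came from 4× images of lung cancer cell lines grown in 1536-well plates for 5 days after pin-tool dosing on the day after seeding. Dosing used one drug alone or a fixed anchor-drug dose plus five library-drug doses (not always all listed) in √10 steps, and values are medians of duplicate plates.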

[2] = compound: C1=CC=C(C(=C1)C2=CC=C(C=C2)C3=CSC4=C3C(=C(C(=O)N4)C#N)O)O + Cc1cc(Nc2cc(N3CCN(C)CC3)nc(Sc3ccc(NC(=O)C4CC4)cc3)n2)n[nH]1 [Tozasertib] (partner 0.1 µM)
How it was run: as §1

[3] = compound: C1=CC=C(C(=C1)C2=CC=C(C=C2)C3=CSC4=C3C(=C(C(=O)N4)C#N)O)O + COc1cc2c(Oc3ccc(NC(=O)C4(C(=O)Nc5ccc(F)cc5)CC4)cc3F)ccnc2cc1OCCCN1CCOCC1 [Foretinib] (partner 0.25 µM)
How it was run: as §1

Ricolinostat + Foretinib = compound: O=C(CCCCCCNC(=O)c1cnc(N(c2ccccc2)c2ccccc2)nc1)NO [Ricolinostat] + COc1cc2c(Oc3ccc(NC(=O)C4(C(=O)Nc5ccc(F)cc5)CC4)cc3F)ccnc2cc1OCCCN1CCOCC1 [Foretinib] (partner 0.25 µM)
How it was run: as §1

Cell Line	relative viability ([1]; first compound 0.08 µM)	relative viability ([1]; first compound 0.253 µM)	relative viability ([1]; first compound 0.8 µM)	relative viability ([1]; first compound 2.53 µM)	relative viability ([1]; first compound 8 µM)	relative viability ([2]; first compound 0.08 µM)	relative viability ([2]; first compound 0.253 µM)	relative viability ([2]; first compound 0.8 µM)	relative viability ([2]; first compound 2.53 µM)	relative viability ([2]; first compound 8 µM)	relative viability ([3]; first compound 0.253 µM)	relative viability ([3]; first compound 0.8 µM)	relative viability ([3]; first compound 2.53 µM)	relative viability ([3]; first compound 8 µM)	relative viability (Ricolinostat + Foretinib; first compound 0.253 µM)	relative viability (Ricolinostat + Foretinib; first compound 0.8 µM)	relative viability (Ricolinostat + Foretinib; first compound 2.53 µM)	relative viability ([3]; first compound 0.08 µM)	relative viability (Ricolinostat + Foretinib; first compound 0.08 µM)
201T	0.734	0.744	0.737	0.734	0.832	0.743	1.03	1.01	1.05	0.926	1.12	1.23	0.988	0.954	1.09	1.14	1.08		
A549											1.07	0.971	0.756	0.649	0.99	0.928	0.917	0.688	0.859
A-427	0.688	0.842	0.772	0.746	0.858	0.188	0.209	0.248	0.224	0.215	1.18	1.19	1.1	1.18	1.17	0.925	1.14	1.16	
ABC-1						0.214	0.204	0.205	0.265	0.186	1.13	1.05	0.951	1.09	0.901	1.11	0.912	1	0.88
BEN	1.13	1.08	1.01	0.967	1.02	0.477	0.507	0.747	0.75	0.541	0.611	0.668	0.646	0.634	0.598	0.483	0.481	0.503	0.657
CAL-12T	0.378	0.381	0.312	0.333	0.27	0.272	0.334	0.305	0.337	0.282	1.13	1.2	1.19	1.01	1.17	1.12	1.35	0.951	1.04
COR-L23	0.669	0.716	0.76	0.552	0.521	0.195	0.213	0.199	0.174	0.153	1.08	1.13	1.07	0.909	0.965	0.87	0.653	0.966	0.973
COR-L 105	0.466	0.46	0.482	0.444	0.408	0.386	0.341	0.358	0.383	0.379	1.33	0.997	0.943	0.994	0.874	0.917	1.16	1.24	
Calu-6											0.967	0.909	0.94	0.773	0.93	0.848	0.83	0.985	0.923
ChaGo-K-1	0.94	0.905	0.935	1.01	0.857	0.242	0.238	0.239	0.232	0.208	0.9	1.08	1.02	0.723	0.912	0.861	0.86	0.882	0.895
EBC-1											0.101	0.123	0.0897	0.115	0.101	0.0995	0.0994	0.103	0.0899
EKVX	0.358	0.436	0.462	0.378	0.318	0.519	0.484	0.349	0.546	0.336	0.828	0.799	0.831	0.743	0.846		0.725	0.882	0.845
EMC-BAC-2	0.942		0.889	0.892	0.913	0.297	0.303	0.254	0.327	0.305	1.1	0.989	0.963	0.896	1.03	0.942	0.851	1.07	0.905
EPLC-272H	0.269		0.245	0.252	0.289	0.223	0.194	0.227	0.22	0.247	0.813	0.772	0.708	0.524	0.704	0.442	0.354	0.613	0.632
H3255	0.57	0.676		0.782	0.526	1.04	0.727	0.213	0.868	0.559	0.803	0.738	0.844	1.07	0.962	0.685	0.589	0.715	0.626
HARA	0.689	0.705	0.959	0.659	0.554	0.117	0.106	0.49	0.104	0.101	1.08	0.938	0.882	0.706	0.901	0.767	0.646	0.721	0.968
HCC-15	0.39	0.369	0.409	0.427	0.358	0.474	0.579	0.371	0.554	0.371	1.1	1.13	1.12	0.898	1.03	1.05	1.05	0.996	0.876
HCC-44	1.13	1.15	1.13	0.937	0.927		1.36	0.876	1.03	0.744									
HCC-78	0.916	1.27	0.972	0.728	0.628	0.465	0.41	0.611	0.503	0.375	0.629	0.579	0.498	0.52	0.526	0.553	0.427	0.649	
HCC-366		0.385	0.363	0.439	0.314	0.139	0.137	0.14	0.124	0.0974	0.974	0.949	0.992	0.959	0.837	0.975	0.817	1.03	0.915
